{"source": "patent US20250280821A1", "about": "“PERFUSION AND METABOLIC RESTORATION OF ORGANS” (Bexorg, Inc., priority 2024, published 2025)", "test_system": "tissue of the dorsomedial prefrontal cortex (dmPFC) of the brain 110", "test": "Raman spectroscopy of brain tissue during ex-vivo perfusion with rapamycin in the perfusate", "format": "in vitro ADME, human", "conditions": "ex-vivo perfused brain", "from_the_text": "As previously discussed, the perfusion system 100 also includes a Raman spectroscopy probe 172 that is coupled to or positioned near the brain housing 102 for performing Raman spectroscopy on the tissue of the brain 110 in real-time during perfusion of the brain 110. Once the brain 110 is fluidly coupled to the organ line 144 and is positioned inside the brain housing 102, the Raman spectroscopy probe 172 is positioned on the surface of the brain 110 and can be operated periodically throughout the perfusion process to perform Raman spectroscopy on the tissue of the brain 110 in real-time as the brain is perfused. […]\nThe data generated by the Raman spectroscopy probe 172 can be used to determine whether the pharmaceutical compound is capable of crossing the blood-brain barrier. The pharmaceutical compound can be determined as capable of crossing the blood-brain barrier in response to detecting that one or more chemical compounds corresponding to the pharmaceutical compound are present in the tissue of the brain 110 using the Raman spectroscopy probe 172. In addition, the percentage of the pharmaceutical compound taken up and metabolized by the brain 110 can be determined based on the concentration of one or more chemical compounds corresponding to the pharmaceutical compound that is detected in the tissue of the brain 110 by the Raman spectroscopy probe 172. […]"}
{"smiles": "CO[C@H]1C[C@@H]2CC[C@@H](C)[C@@](O)(O2)C(=O)C(=O)N2CCCC[C@H]2C(=O)O[C@H]([C@H](C)C[C@@H]2CC[C@@H](O)[C@H](OC)C2)CC(=O)[C@H](C)/C=C(\\C)[C@@H](O)[C@@H](OC)C(=O)[C@H](C)C[C@H](C)/C=C/C=C/C=C/1C", "note": "[rapamycin]", "values": [{"measurement": "concentration of rapamycin present in the brain", "setting": "Raman spectroscopy of dmPFC tissue over time (FIG. 6)", "result": "continually increased until a stable concentration 604 was reached"}, {"measurement": "ability to cross the blood-brain barrier of the brain", "setting": "rapamycin added to perfusate by syringe pump, Raman spectroscopy of dmPFC tissue (FIG. 6)", "result": "able to cross the blood-brain barrier"}]}
